Paper PMC3397457, “Preclinical Evaluation of Anticancer Efficacy and Pharmacological Properties of FBA-TPQ, a Novel Synthetic Makaluvamine Analog” (Marine Drugs, 2012)
Like-named read-outs stand apart in the source and are kept apart here.

Key:
[1] = Pharmacokinetics and tissue distribution in BALB/c mice; type: in vivo; settings: for Vd: read-out: Vss
Protocol: To assess the disposition of FBA-TPQ in vivo, pharmacokinetic studies in BALB/c were conducted. The results of the mean plasma concentration-time curves of FBA-TPQ, and tissue concentration-time curves of FBA-TPQ, after intravenous or intraperitoneal injection in BALB/c mice are presented in Figure 5. Two-compartmental model (WinNonlin 6.0 Model 7, Pharsight Corporation: Mountain View, CA, USA, 2009) was used to analyze the data obtained following intravenous (iv) and intraperitoneal (ip) administration of the compound.
Female BALB/c (18–20 g) mice were purchased from Harlan Laboratories (Indianapolis, IN). All animals were fed with commercial diet and water ad libitum and were on an alternating 12 h light/dark cycle. The mice were randomly divided into groups of three, and were dosed either intravenously (5 mg/kg) or intraperitoneally (10 mg/kg) with FBA-TPQ in PEG 400: ethanol: saline (57.1%:14.3%:28.6%). Before dosing, and at 5, 15, 30, and 60 min, and 2, 4, 8, and 24 h after dosing, groups of animals (three/time point) were anesthetized, and blood was collected from the retro-orbital sinus into heparinized tubes. Plasma was obtained by centrifuging the blood samples at 14,000 rpm for 15 min. FBA-TPQ was then extracted from plasma and stored at −80 °C until analysis. The brain, heart, kidneys, liver, lungs, and spleen were also collected at the same time points during necropsy, blotted on Whatman No. 1 filter paper, trimmed of extraneous fat and connective tissue, weighed, and homogenized in phosphate-buffered saline. The resulting homogenates were stored at −80 °C until further processing and analysis.
The average FBA-TPQ concentrations in plasma and tissues at each of the time points following intravenous and intraperitoneal administrations were used for pharmacokinetic analyses using a one- or two-compartmental model, respectively. The following pharmacokinetic parameters were estimated using Phoenix WinNonlin 6.0 (Mountain View, CA, USA): area under the concentration-time curve (AUC, h·μg/mL), half-life (T½, h), maximum concentration (Cmax, μg/mL), time of the maximum concentration (Tmax, h), and clearance (CL, mL/h/kg), as applicable. Bioavailability (X) was calculated as X = [AUCip × doseiv]/[AUCiv × doseip].

HPAC cells = experiment: Annexin V apoptosis assay/flow cytometry, HPAC; type: cell-based, human; settings: 1 µM, 48 h
Protocol: The apoptotic cells were detected using a method reported previously. […] In HPAC cells, a 1 µM concentration of FBA-TPQ increased the apoptotic index two-fold higher than that seen in control cells (P < 0.01). […] In the Mia PaCa-2 cells, FBA-TPQ at 1 µM led to a three-fold increase in apoptosis (P < 0.01).
Following a similar protocol as above, cells in early and late stages of apoptosis were detected using an Annexin V-FITC apoptosis detection kit from BioVision (Mountain View, CA, USA), according to the manufacturer’s protocol. For apoptosis experiments, 2–3 × 10^5 cells were exposed to the test compound (0, 0.1, 0.5 and 1.0 µM) and incubated for 48 h prior to analysis. Cells were collected and washed with serum-free media. Cells were then re-suspended in 500 µL of Annexin V binding buffer followed by addition of 5 µL of Annexin V-FITC and 5 µL of propidium iodide (PI). The samples were incubated in the dark for 5 min at room temperature and analyzed with a Becton Dickinson FACSCalibur instrument (Ex = 488 nm; Em = 530 nm). Cells that were positive for Annexin V-FITC alone (early apoptosis) and Annexin V-FITC and PI (late apoptosis) were counted. The apoptotic index was calculated against the untreated control cells.

[2] = female, mouse, brain, ip, 10 mg/kg
[3] = female, mouse, brain, iv, 5 mg/kg
[4] = female, mouse, heart, ip, 10 mg/kg
[5] = female, mouse, heart, iv, 5 mg/kg
[6] = female, mouse, kidneys, ip, 10 mg/kg
[7] = female, mouse, kidneys, iv, 5 mg/kg
[8] = female, mouse, liver, ip, 10 mg/kg
[9] = female, mouse, liver, iv, 5 mg/kg
[10] = female, mouse, lungs, ip, 10 mg/kg
[11] = female, mouse, lungs, iv, 5 mg/kg
[12] = female, mouse, plasma, ip, 10 mg/kg
[13] = female, mouse, plasma, iv, 5 mg/kg
[14] = female, mouse, spleen, ip, 10 mg/kg
[15] = female, mouse, spleen, iv, 5 mg/kg

In the case of `O=C1C(NCc2ccc(F)cc2)=CC2=NCCc3c[nH]c1c32` [FBA-TPQ, 7-(4-fluorobenzylamino)-1,3,4,8-tetrahydropyrrolo[4,3,2-de]quinolin-8(1H)-one], the “detectability in mouse plasma” value ([1]; 4 h after iv injection, 5 mg/kg) is reported as “no longer detectable”, the Vss ([1]; brain, ip, 10 mg/kg) is reported as 4.10 mL/g and the AUC [1, 2] is reported as 62.3 ng·h/mL. For the same compound, the half-life [1, 2] was 110 min, the AUC [1, 3] was 138 ng·h/mL and the half-life [1, 3] was 15.1 min. The clearance ([1]; female, mouse, brain, iv, 5 mg/kg, read-out: Cl (converted)) was 575 mL/min/kg, the Vd [1, 3] was 18.7 L/kg and the AUC [1, 4] was 2360 ng·h/mL. For the same compound, the half-life [1, 4] was 32.5 min, the AUC [1, 5] was 2000 ng·h/mL and the half-life [1, 5] was 30.1 min. It also gave a clearance ([1]; female, mouse, heart, iv, 5 mg/kg, read-out: Cl (converted)) of 41.2 mL/min/kg, a Vd [1, 5] of 1.77 L/kg and an AUC [1, 6] of 14700 ng·h/mL. It also gave a half-life [1, 6] of 94.8 min, an AUC [1, 7] of 11500 ng·h/mL and a half-life [1, 7] of 15.1 min. For the same compound, the clearance ([1]; female, mouse, kidneys, iv, 5 mg/kg, read-out: Cl (converted)) was 7.27 mL/min/kg, the Vd [1, 7] was 0.491 L/kg and the AUC [1, 8] was 1850 ng·h/mL. The half-life [1, 8] was 7.62 min, the AUC [1, 9] was 949 ng·h/mL and the half-life [1, 9] was 30.6 min. For the same compound, the clearance ([1]; female, mouse, liver, iv, 5 mg/kg, read-out: Cl (converted)) was 78.3 mL/min/kg, the Vd [1, 9] was 3.34 L/kg and the AUC [1, 10] was 5710 ng·h/mL. For the same compound, the half-life [1, 10] was 21.8 min, the AUC [1, 11] was 4020 ng·h/mL and the half-life [1, 11] was 30.1 min. It also gave a clearance ([1]; female, mouse, lungs, iv, 5 mg/kg, read-out: Cl (converted)) of 20.6 mL/min/kg, a Vd [1, 11] of 7.79 L/kg and a bioavailability ([1]; female, mouse, plasma, intraperitoneal, based on AUC values, ip 10 mg/kg vs iv 5 mg/kg) of 28.9%. For the same compound, the AUC [1, 12] was 338 ng·h/mL, the half-life [1, 12] was 13.1 min and the concentration at 5 min ([1]; female, mouse, plasma, ip, 10 mg/kg, at 5 min) was 542 ng/mL. It also gave a concentration at 2 h ([1]; female, mouse, plasma, ip, 10 mg/kg, at 2 h) of 40.2 ng/mL, an AUC [1, 13] of 583 ng·h/mL and a half-life [1, 13] of 14.9 min. It also gave a Vd [1, 13] of 18.7 L/kg, a clearance ([1]; female, mouse, plasma, single bolus iv dose 5 mg/kg, read-out: clearance rate (converted)) of 141 mL/min/kg and an AUC [1, 14] of 6500 ng·h/mL. It also gave a half-life [1, 14] of 104 min, an AUC [1, 15] of 2330 ng·h/mL and a half-life [1, 15] of 4.86 min. It also gave a clearance ([1]; female, mouse, spleen, iv, 5 mg/kg, read-out: Cl (converted)) of 33 mL/min/kg, a Vd [1, 15] of 1.27 L/kg and a Cl ([1]; heart, ip, 10 mg/kg) of 64.2 mL/min/kg. The Vss ([1]; heart, ip, 10 mg/kg) was 2.19 mL/g, the “order of highest overall tissue concentrations” value ([1]; ip, 10 mg/kg) was “kidneys > spleen > lungs > liver > heart > brain” and the concentration in plasma ([1]; ip, 10 mg/kg, 4 h after administration) was “undetectable levels”. For the same compound, the “order of highest overall concentrations in the tissues examined” value ([1]; iv, 5 mg/kg) was “kidneys > lungs > heart > spleen > plasma ≈ liver > brain”, the Cl ([1]; kidneys, ip, 10 mg/kg) was 13.7 mL/min/kg and the Vss ([1]; kidneys, ip, 10 mg/kg) was 0.801 mL/g. It also gave a Cl ([1]; liver, ip, 10 mg/kg) of 64.2 mL/min/kg, a Cl ([1]; lungs, ip, 10 mg/kg) of 31.3 mL/min/kg and a Vss ([1]; lungs, ip, 10 mg/kg) of 10.32 mL/g. It also gave a Cl ([1]; plasma, ip, 10 mg/kg) of 330 mL/min/kg, a Vss ([1]; plasma, ip, 10 mg/kg) of 21.8 mL/g and a Cl ([1]; plasma, iv, 5 mg/kg) of 141 mL/min/kg. For the same compound, the Cl ([1]; spleen, ip, 10 mg/kg) was 15.5 mL/min/kg, the Vss ([1]; spleen, ip, 10 mg/kg) was 0.78 mL/g and the “increase of apoptotic index vs control cells” value (HPAC cells) was “two-fold”.
